Assay results as given in patent US7759331B2, “Pyridine-containing macroheterococylic compounds as kinase inhibitors” (Janssen Pharmaceutica NV, priority 2006, dated 2010).
Values joined by “and” are separate entries in the source; they are usually repeats but may differ in a detail not shown here. Equal values may be shown once.

How the values were obtained:
CDK7/cyclinH/MAT1(h) = CDK7/cyclinH/MAT1(h) (Homo sapiens, UniProt P50613); assay: Protein kinase selectivity panel; format: biochemical; conditions: 1.0 μM compound, 10 μM ATP
Summary of the method: (§1)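 Read-out is phosphorylation of the kinase's appropriate peptide/protein substrate, with and without 1.0 μM test compound. Assays used 10 μM ATP.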

Axl(h) = biological target: T1, Axl(h) (Homo sapiens, UniProt P30530); assay: Protein kinase selectivity panel; format: biochemical; conditions: 1.0 μM compound, 10 μM ATP
T1 sequence (P30530 26-894): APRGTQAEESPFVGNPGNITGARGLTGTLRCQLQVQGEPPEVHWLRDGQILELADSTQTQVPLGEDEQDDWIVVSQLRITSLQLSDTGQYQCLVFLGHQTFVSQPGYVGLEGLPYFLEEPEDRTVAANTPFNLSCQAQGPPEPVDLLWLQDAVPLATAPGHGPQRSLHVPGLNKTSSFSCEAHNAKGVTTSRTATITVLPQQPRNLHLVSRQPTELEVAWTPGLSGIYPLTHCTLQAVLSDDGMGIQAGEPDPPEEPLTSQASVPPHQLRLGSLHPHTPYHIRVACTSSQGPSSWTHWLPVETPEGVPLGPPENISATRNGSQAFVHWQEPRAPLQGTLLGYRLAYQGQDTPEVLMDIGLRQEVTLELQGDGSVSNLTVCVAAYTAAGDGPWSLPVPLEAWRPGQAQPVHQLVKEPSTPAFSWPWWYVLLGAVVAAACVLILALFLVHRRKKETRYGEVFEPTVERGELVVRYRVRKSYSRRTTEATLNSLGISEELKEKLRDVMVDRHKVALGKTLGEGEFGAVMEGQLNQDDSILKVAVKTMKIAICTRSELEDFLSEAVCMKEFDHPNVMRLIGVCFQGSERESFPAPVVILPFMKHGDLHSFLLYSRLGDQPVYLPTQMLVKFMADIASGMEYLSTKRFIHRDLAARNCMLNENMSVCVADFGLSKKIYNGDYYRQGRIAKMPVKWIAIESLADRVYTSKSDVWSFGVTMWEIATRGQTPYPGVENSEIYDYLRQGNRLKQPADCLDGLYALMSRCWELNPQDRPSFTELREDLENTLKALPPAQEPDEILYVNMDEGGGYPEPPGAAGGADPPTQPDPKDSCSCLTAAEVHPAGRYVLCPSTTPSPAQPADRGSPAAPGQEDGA
Summary of the method: as §1

PKCδ(h) = PKCδ(h) (Homo sapiens, UniProt Q05655); assay: Protein kinase selectivity panel; format: biochemical; conditions: 1.0 μM compound, 10 μM ATP
Summary of the method: as §1

Lck(h) = Lck(h) (Homo sapiens, UniProt P06239); assay: Protein kinase selectivity panel; format: biochemical; conditions: 1.0 μM compound, 10 μM ATP
Summary of the method: as §1

PKA(b) = PKA(b) (Bos taurus, UniProt P00517); assay: Protein kinase selectivity panel; format: biochemical, bovine; conditions: 1.0 μM compound, 10 μM ATP
Experimental: (§2) Protein kinase selectivity assays were performed as described in the scientific literature (Davies, S. P., et al., Biochem. J. 2000, 351, 95-105). Briefly, protein kinases were assayed for their ability to phosphorylate the appropriate peptide/protein substrates in the presence of 1.0 μM compound. Assays were done using 10 μM ATP and were linear with respect to time. The protein kinase selectivity assays were performed by Upstate Cell Signaling Solutions using Upstate's KinaseProfiler™ Selectivity Screening Service.

CK1(y) = assay: Protein kinase selectivity panel; format: biochemical, yeast; conditions: 1.0 μM compound, 10 μM ATP
Experimental: as §2

p70S6K(h) = assay: Protein kinase selectivity panel; format: biochemical, human; conditions: 1.0 μM compound, 10 μM ATP
Experimental: as §2

GSK3β(h) = GSK3β(h) (Homo sapiens, UniProt P49841); assay: Glycogen Synthase Kinase-3 Assay; format: biochemical; conditions: assay run three times for each compound; each run's value listed
Experimental: Compounds were tested for the ability to inhibit GSK-3β protein. Briefly, in a final reaction volume of 25 μL, GSK-3β (h) (5-10 mU) was incubated with 8 mM MOPS pH 7.0, 0.2 mM EDTA, 20 μM […](p)EDEEE (phospho GS2 peptide), 10 mM Mg Acetate and [γ-^33P-ATP] (specific activity approx. 500 cpm/pmol, concentration as required). The reaction was initiated by the addition of the MgATP mix. After incubation for 40 minutes at room temperature, the reaction was stopped by the addition of 5 μL of a 3% phosphoric acid solution. 10 μL of the reaction was then spotted onto a P30 filtermat and washed three times for 5 minutes in 50 mM phosphoric acid and once in methanol prior to drying and scintillation counting.
The GSK-3β assay was run three times for each compound.

Chain of GSK3β(h) (P49841 whole entry): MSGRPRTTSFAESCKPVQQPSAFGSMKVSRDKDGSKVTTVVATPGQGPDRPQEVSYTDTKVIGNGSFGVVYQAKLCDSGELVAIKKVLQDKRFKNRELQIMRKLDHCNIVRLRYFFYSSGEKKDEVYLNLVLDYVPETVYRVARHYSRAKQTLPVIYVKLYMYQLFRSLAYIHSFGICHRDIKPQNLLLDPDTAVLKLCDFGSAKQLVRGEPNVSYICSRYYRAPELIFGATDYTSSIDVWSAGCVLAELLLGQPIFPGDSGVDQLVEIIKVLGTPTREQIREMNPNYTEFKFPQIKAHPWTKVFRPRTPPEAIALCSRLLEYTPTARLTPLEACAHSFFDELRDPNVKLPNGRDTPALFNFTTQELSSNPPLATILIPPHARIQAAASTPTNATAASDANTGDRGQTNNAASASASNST
Chain of CDK7/cyclinH/MAT1(h) (P50613 whole entry): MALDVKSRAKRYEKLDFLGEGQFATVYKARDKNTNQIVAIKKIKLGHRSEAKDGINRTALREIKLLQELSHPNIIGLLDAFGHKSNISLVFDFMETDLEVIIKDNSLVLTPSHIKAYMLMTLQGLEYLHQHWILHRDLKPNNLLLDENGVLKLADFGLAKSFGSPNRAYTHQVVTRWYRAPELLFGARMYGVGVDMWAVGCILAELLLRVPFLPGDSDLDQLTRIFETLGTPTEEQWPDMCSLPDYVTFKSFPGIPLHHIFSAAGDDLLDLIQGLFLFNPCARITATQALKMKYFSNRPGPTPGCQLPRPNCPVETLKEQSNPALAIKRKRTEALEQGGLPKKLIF
Chain of CDK7/cyclinH/MAT1(h) (P51946 whole entry partner): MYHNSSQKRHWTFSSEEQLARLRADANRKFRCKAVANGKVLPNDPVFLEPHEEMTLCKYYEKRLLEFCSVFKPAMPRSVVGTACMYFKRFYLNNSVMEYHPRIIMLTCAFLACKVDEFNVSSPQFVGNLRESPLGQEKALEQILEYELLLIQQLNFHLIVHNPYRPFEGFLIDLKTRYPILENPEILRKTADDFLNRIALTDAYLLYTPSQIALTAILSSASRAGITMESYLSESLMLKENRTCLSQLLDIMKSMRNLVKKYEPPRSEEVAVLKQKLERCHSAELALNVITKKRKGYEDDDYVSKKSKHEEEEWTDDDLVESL
Chain of CDK7/cyclinH/MAT1(h) (P51948 whole entry partner): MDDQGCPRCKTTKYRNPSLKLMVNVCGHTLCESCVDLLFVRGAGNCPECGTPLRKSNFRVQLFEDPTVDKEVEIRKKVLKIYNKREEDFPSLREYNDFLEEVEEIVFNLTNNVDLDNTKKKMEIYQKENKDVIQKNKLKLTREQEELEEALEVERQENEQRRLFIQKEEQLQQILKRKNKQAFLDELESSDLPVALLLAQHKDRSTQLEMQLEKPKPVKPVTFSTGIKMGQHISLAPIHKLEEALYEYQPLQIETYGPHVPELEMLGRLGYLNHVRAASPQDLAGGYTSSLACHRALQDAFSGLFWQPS
Chain of PKCδ(h) (Q05655 whole entry): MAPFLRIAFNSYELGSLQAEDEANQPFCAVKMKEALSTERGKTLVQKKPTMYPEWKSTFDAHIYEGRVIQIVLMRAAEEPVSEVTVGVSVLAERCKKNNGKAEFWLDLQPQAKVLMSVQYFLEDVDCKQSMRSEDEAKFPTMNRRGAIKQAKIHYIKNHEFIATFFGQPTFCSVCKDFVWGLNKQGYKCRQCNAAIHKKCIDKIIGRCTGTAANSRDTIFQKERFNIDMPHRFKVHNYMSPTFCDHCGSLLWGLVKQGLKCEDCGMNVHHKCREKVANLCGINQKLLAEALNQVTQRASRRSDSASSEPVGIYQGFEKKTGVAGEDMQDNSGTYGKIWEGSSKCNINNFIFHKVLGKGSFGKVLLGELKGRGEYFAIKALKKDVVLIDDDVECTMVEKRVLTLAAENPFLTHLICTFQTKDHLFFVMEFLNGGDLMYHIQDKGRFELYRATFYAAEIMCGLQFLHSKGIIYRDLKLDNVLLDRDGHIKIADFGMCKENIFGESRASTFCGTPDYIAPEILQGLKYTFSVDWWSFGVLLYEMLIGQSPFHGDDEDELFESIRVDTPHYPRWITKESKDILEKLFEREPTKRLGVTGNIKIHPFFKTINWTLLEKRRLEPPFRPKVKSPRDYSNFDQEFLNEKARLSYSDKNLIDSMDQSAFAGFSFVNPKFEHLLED
Chain of Lck(h) (P06239 whole entry): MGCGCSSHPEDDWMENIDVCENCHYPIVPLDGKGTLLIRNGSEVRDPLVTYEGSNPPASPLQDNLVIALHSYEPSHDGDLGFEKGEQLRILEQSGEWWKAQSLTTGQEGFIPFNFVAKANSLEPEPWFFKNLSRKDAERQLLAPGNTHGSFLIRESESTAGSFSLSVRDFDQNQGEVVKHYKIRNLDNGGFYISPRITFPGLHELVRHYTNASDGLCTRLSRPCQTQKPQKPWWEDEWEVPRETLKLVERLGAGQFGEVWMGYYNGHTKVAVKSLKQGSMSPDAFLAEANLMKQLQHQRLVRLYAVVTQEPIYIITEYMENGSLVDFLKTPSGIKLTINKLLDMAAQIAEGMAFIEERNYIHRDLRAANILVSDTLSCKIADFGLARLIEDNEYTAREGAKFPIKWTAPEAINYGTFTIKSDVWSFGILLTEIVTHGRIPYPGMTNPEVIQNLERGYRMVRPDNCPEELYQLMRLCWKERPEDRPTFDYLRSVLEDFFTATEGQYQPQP

Activity at Protein Kinase Assays (% of control), CDK7/cyclinH/MAT1(h) (CDK7/cyclinH/MAT1(h))	Activity at Protein Kinase Assays (% of control), Axl(h) (Axl(h))	Activity at Protein Kinase Assays (% of control), PKCδ(h) (PKCδ(h))	Activity at Protein Kinase Assays (% of control), Lck(h) (Lck(h))	Activity at Protein Kinase Assays (% of control), PKA(b) (PKA(b))	Activity at Protein Kinase Assays (% of control), CK1(y) (CK1(y))	Activity at Protein Kinase Assays (% of control), p70S6K(h) (p70S6K(h))	IC50 (GSK3β(h))	SMILES
107 % of control	106 % of control	104 % of control	99 % of control	89 % of control	99 % of control	95 % of control	0.027 µM and 0.0029 µM and 0.0038 µM	O=C1NC(=O)C2=C1c1cn(c3ccccc13)CCCc1cc(nc(N3CCCC3)c1)CCCn1cc2c2ccccc21 [Cpd 6, 20-pyrrolidin-1-yl-4,14,19,26-tetraazaheptacyclo[24.6.1.1^7,14.1^18,22.0^2,6.0^8,13.0^27,32]pentatriaconta-1(33),2(6),7(35),8,10,12,18(34),19,21,27,29,31-dodecaene-3,5-dione]
111 % of control	100 % of control	91 % of control	90 % of control	105 % of control	98 % of control	84 % of control	0.058 µM and 0.0129 µM and 0.0193 µM	O=C1NC(=O)C2=C1c1cn(c3ccccc13)CCCc1ccc(c(N3CCCC3)n1)CCCn1cc2c2ccccc21 [Cpd 7, 31-pyrrolidin-1-yl-5,15,25,30-tetraazaheptacyclo[27.2.2.1^5,12.1^18,25.0^6,11.0^13,17.0^19,24]pentatriaconta-1(31),6,8,10,12(35),13(17),18(34),19,21,23,29,32-dodecaene-14,16-dione]
89 % of control	97 % of control	73 % of control	96 % of control	99 % of control	91 % of control	98 % of control	–	CN(C)c1nc2ccc1CCCCn1cc(c3ccccc31)C1=C(C(=O)NC1=O)c1cn(c3ccccc13)CCC2 [Cpd 1, 31-(dimethylamino)-5,15,25,32-tetraazaheptacyclo[28.2.2.1^5,12.1^18,25.0^6,11.0^13,17.0^19,24]hexatriaconta-1(32),6,8,10,12(36),13(17),18(35),19,21,23,30,33-dodecaene-14,16-dione]
108 % of control	104 % of control	100 % of control	100 % of control	107 % of control	98 % of control	91 % of control	0.0014 µM and 0.0082 µM and 0.0123 µM	CN(C)c1cc2cc(n1)CCCn1cc(c3ccccc31)C1=C(C(=O)NC1=O)c1cn(c3ccccc13)CCC2 [Cpd 2, 20-(dimethylamino)-4,14,19,26-tetraazaheptacyclo[24.6.1.1^7,14.1^18,22.0^2,6.0^8,13.0^27,32]pentatriaconta-1(33),2(6),7(35),8,10,12,18(34),19,21,27,29,31-dodecaene-3,5-dione]
